Measurements from US4235912A, “Biologically active new 8β-hydrazinomethyl-ergoline derivatives and a process for the preparation thereof” (Richter Gedeon Vegyeszeti Gyar Rt, priority 1978, dated 1980).
pIC50: −log10 of the molar value. Entries after “also recorded” stand apart in the source; their conditions may differ.

Columns and labels:
[1] = tested on: serotonine-induced oedema; test: antiserotonine effect in vivo: inhibition of serotonine-induced plantar oedema; set-up: species or system rat; details: for ED50: Rattus norvegicus, 50 μg serotonine into plantar region of rats
[2] = molecular target: T1, serotonine receptors (Rattus norvegicus, UniProt P14842); test: antiserotonine effect in vitro on isolated rat uterus sensitized with diethylstibestrol
T1 construct: isolated rat uterus sensitized with diethylstibestrol; from tissue; host or cells: isolated rat uterus, sensitized with diethylstilbestrol (printed 'diethylstibestrol')
T1 sequence (P14842 whole entry): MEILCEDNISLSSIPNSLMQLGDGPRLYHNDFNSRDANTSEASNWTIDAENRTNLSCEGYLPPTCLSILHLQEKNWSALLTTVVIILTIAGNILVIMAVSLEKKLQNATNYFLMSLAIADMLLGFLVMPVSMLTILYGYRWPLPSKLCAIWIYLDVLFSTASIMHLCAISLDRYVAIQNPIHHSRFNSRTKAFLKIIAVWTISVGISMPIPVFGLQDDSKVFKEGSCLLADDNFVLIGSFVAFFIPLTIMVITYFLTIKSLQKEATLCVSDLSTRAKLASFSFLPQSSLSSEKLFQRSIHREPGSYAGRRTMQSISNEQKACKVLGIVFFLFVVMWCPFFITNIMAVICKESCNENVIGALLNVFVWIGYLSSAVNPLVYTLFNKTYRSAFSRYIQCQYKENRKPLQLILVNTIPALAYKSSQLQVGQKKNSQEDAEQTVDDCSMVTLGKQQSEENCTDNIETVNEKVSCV

[3] = tested on: reserpine-induced depression; test: antidepressant activity: reserpine-induced depression, maximum increase in body temperature; format: in vivo; details: mice
Protocol: The new 8β-hydrazinomethyl-ergoline derivatives show antidepressant effects as tested on mice suffering from reserpine-induced depression. An intraperitoneal dosage of 5 mg/kg of reserpine was applied to induce depression. 18 hours later the body temperature of the animals was measured, 30 mg/kg of the compound under examination were administered intraperitoneally into the animals, and the body temperature of the animals was measured hourly for 5 hours. The maximum increase in temperature (i.e. the maximum body temperature measured after administering the compound minus the initial value) was considered as the measure of the antidepressant activity. In these tests Imipramine was used as a reference substance.

| SMILES | ED50 ([1]; po) [mg/kg] | ED50 ([1]; sc) [mg/kg] | pIC50 [2] | inhibition of serotonine-induced oedema, in words ([1]; parenteral and oral administration) | antidepressant activity, in words [3] |
| --- | --- | --- | --- | --- | --- |
| CC(=O)NNC[C@@H]1C[C@@H]2c3cccc4[nH]cc(c34)C[C@H]2N(C)C1 [Example 4, 6-Methyl-8β-([N'-acetyl-hydrazino]-methyl)-ergoline] | 3 | 0.3 | – | – | – |
| CN(C)C(=O)NNC[C@@H]1C[C@@H]2c3cccc4[nH]cc(c34)C[C@H]2N(C)C1 [Example 6, 6-Methyl-8β-([N'-dimethylcarbamoyl-hydrazino]-methyl)-ergoline] | 3 | 0.05 | – | – | – |
| CC(=O)NNC[C@@H]1C[C@@H]2c3cccc4c3c(cn4C)C[C@H]2N(C)C1 [Example 7, 1,6-Dimethyl-8β-([N'-acetyl-hydrazino]-methyl)-ergoline] | 3 to 10 | 0.03 | – | – | – |
| CN(C)C(=O)NNC[C@@H]1C=C2c3cccc4[nH]cc(c34)C[C@H]2N(C)C1 [Example 8, 6-Methyl-8β-([N'-dimethylcarbamoyl-hydrazino]-methyl)-ergol-9-ene] | 3 | 0.16 | 8.53 | – | – |
| CC(=O)NNC[C@@H]1C=C2c3cccc4[nH]cc(c34)C[C@H]2N(C)C1 [Example 9, 6-Methyl-8β-([N'-acetyl-hydrazino]-methyl)-ergol-9-ene] | 0.78 | 0.055 | 8.49 | outstandingly effective | – |
| CNC(=S)NNC[C@@H]1C=C2c3cccc4[nH]cc(c34)C[C@H]2N(C)C1 [Example 14, 6-Methyl-8β-([N'-methylthiocarbamoyl-hydrazino]-methyl)-ergol-9-ene] | – | – | – | – | outstandingly effective; also recorded: superior to that of Imipramine |
| CC[C@@H](CO)NC(=O)[C@@H]1C=C2c3cccc4c3c(cn4C)C[C@H]2N(C)C1 [Methysergide, 1-methyl lysergic acid butanolamide, reference compound] | 0.64 | 0.026 | – | – | – |
